{"source": "patent EP0850306B1", "about": "“LACCASES WITH AN ALTERED pH ACTIVITY PROFILE” (Novozymes Biotech, Inc., priority 1995, dated 1997)", "key": {"[1]": {"biological_target": "T1, Rhizoctonia solani laccase isozyme 4 (RsL, rsl4), wild type (pJiWa59), SEQ ID NOS:24 and 25 (Thanatephorus cucumeris, UniProt Q02081)", "T1 construct": "made in house; host or cells: Aspergillus oryzae HowB104", "T1 sequence (Q02081 20-531)": "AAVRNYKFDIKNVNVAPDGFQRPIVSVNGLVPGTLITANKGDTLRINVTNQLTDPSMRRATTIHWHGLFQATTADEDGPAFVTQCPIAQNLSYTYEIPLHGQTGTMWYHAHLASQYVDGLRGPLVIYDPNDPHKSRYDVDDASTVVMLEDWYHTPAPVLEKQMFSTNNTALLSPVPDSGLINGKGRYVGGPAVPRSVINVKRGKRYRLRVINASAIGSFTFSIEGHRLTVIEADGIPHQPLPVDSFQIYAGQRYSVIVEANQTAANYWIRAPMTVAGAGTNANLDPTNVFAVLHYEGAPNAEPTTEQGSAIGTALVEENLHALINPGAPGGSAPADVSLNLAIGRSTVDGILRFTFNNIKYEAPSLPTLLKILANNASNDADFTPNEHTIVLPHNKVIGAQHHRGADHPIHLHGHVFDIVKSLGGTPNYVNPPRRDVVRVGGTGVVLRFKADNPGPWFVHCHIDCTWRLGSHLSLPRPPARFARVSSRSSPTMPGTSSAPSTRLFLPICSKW", "test": "Laccase substrate oxidation kinetics (Km, kcat), RsL wild type", "type": "biochemical", "conditions": "read-out: Km (ABTS); 8 mM MES-NaOH buffer, pH 5.3; spectroscopic", "experimental": "(§1) The absorbance at 530 nm is measured over time in a UV-VIS spectrophotometer. One laccase unit (LACU) is defined as the amount of enzyme which oxidizes one µmole of substrate per minute at 30°C.\n(§2) Km and kcat are obtained from the initial rate (v), enzyme concentration (E), and substrate concentration (S) in accordance to the equation v = kcat ES/( Km + S) by non-linear regression fitting using the Prizm program (GraphPad, San Diego, CA). […] The O2 concentration in air-saturated buffer solution is assumed as the same in plain water (0.28 mM)."}, "[2]": {"biological_target": "T2, Myceliophthora thermophila laccase (MtL, lcc-1), wild type (pRaMB17), SEQ ID NOS:26 and 27 (Thermothelomyces thermophilus, UniProt G2QG31)", "T2 sequence (G2QG31 48-602)": "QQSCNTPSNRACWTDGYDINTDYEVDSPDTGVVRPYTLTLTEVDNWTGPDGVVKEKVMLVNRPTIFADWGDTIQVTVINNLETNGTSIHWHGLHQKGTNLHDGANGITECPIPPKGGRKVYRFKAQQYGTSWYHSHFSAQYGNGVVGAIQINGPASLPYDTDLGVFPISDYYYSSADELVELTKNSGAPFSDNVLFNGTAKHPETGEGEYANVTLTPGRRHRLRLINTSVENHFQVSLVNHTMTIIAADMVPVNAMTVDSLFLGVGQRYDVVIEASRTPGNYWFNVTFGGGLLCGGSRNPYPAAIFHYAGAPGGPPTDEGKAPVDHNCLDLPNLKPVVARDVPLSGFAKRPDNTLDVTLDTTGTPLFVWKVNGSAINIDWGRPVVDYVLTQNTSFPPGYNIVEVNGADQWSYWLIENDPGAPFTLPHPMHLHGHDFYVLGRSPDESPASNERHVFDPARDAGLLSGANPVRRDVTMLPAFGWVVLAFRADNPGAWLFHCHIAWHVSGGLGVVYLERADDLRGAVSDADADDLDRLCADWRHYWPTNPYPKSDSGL", "test": "Laccase substrate oxidation kinetics (Km, kcat), MtL wild type", "type": "biochemical", "conditions": "8 mM MES-NaOH buffer, pH 5.3, spectroscopic", "experimental": "as §1, §2"}, "[3]": {"biological_target": "T3, Myceliophthora thermophila laccase (MtL) mutant \"T\", V509L/S510E/G511A (pBANe22T) (Thermothelomyces thermophilus, UniProt G2QG31, G554A/S553E/V552L)", "T3 sequence (G2QG31 48-602 V552L/S553E/G554A)": "T2 sequence (G2QG31 48-602)", "test": "Laccase substrate oxidation kinetics (Km, kcat), MtL mutant \"T\"", "type": "biochemical", "conditions": "read-out: Km (ABTS); 8 mM MES-NaOH buffer, pH 5.3; spectroscopic", "experimental": "as §1, §2"}, "[4]": {"system": "COc1cc(C=NN=Cc2cc(OC)c(O)c(OC)c2)cc(OC)c1O", "test": "Laccase substrate oxidation kinetics (Km, kcat), MtL mutant \"T\"", "type": "biochemical, Myceliophthora thermophila", "conditions": "other: 8 mM MES-NaOH buffer, pH 5.3, spectroscopic", "experimental": "as §1, §2"}}, "note": "Like-named read-outs stand apart in the source and are kept apart here.", "data": [{"molecule": "CCn1c(=NN=c2sc3cc(S(=O)(=O)O)ccc3n2CC)sc2cc(S(=O)(=O)O)ccc21", "note": "[ABTS, 2,2'-azinobis(3-ethylbenzthiazoline-6-sulfonic acid)]", "values": [{"measurement": "Km", "setting": "[1]", "value": "52 ± 6", "unit": "µM"}, {"measurement": "Km", "setting": "[2]; read-out: Km (ABTS)", "value": "110 ± 20", "unit": "µM"}, {"measurement": "Km", "setting": "[3]", "value": "11 ± 2", "unit": "µM"}]}, {"molecule": "COc1cc(C=NN=Cc2cc(OC)c(O)c(OC)c2)cc(OC)c1O", "note": "[SGZ, syringaldazine]", "values": [{"measurement": "kcat (SGZ)", "setting": "[2]", "value": "75 ± 3.33", "unit": "s⁻¹"}, {"measurement": "Km", "setting": "[2]; read-out: Km (SGZ)", "value": "1.4 ± 0.2", "unit": "µM"}]}, {"molecule": "Myceliophthora thermophila laccase (MtL) mutant \"T\", V509L/S510E/G511A (pBANe22T) (Thermothelomyces thermophilus ATCC 42464; G554A/S553E/V552L)", "values": [{"measurement": "Km", "setting": "[4]", "value": "0.9 ± 0.2", "unit": "µM"}, {"measurement": "kcat", "setting": "[4]", "value": "6 ± 0.333", "unit": "s⁻¹"}]}]}
